The results in this text go back to patent US20100311714A1, “1H-IMIDAZO[4,5-c]QUINOLINONE COMPOUNDS” (priority 2009, published 2010).

This experiment has as its system PKB Ser473 phosphorylation in Rat1-myr-HA-p110 alpha cells. Briefly: Reverse protein array, PKB Ser473 phosphorylation in Rat1-myr-HA-p110 alpha cells. It counts as cell-based. The conditions noted are these: Rattus norvegicus, 0.5 h, 30 minutes compound incubation, read-out: p-PKB/IC50_alpha.

A value given as a limit tells only on which side of the number the result lay.

Take `CN(C)c1ccc(-c2ccc3ncc4c(c3c2)n(-c2cccnc2)c(=O)n4C)cn1` [Example 5.3, 8-(6-Dimethylamino-pyridin-3-yl)-3-methyl-1-pyridin-3-yl-1,3-dihydro-imidazo[4,5-c]quinolin-2-one]: the IC50 worked out at 92.2 nM. Regarding `CCOc1ccc(-c2ccc3ncc4c(c3c2)n(-c2cccnc2F)c(=O)n4C)cn1` [Example 6.1, 8-(6-Ethoxy-pyridin-3-yl)-1-(2-fluoro-pyridin-3-yl)-3-methyl-1,3-dihydro-imidazo[4,5-c]quinolin-2-one], the IC50 was 31.5 nM. With `Cn1c(=O)n(-c2cccnc2F)c2c3cc(-c4cnc(N)c(C(F)(F)F)c4)ccc3ncc21` [Example 6.2, 8-(6-Amino-5-trifluoromethyl-pyridin-3-yl)-1-(2-fluoro-pyridin-3-yl)-3-methyl-1,3-dihydro-imidazo[4,5-c]quinolin-2-one], the IC50 worked out at 4.57 nM. As for `Cc1nc(F)ccc1-n1c(=O)n(C)c2cnc3ccc(-c4cnc(N)c(C(F)(F)F)c4)cc3c21` [Example 7.1, 8-(6-Amino-5-trifluoromethyl-pyridin-3-yl)-1-(6-fluoro-2-methyl-pyridin-3-yl)-3-methyl-1,3-dihydro-imidazo[4,5-c]quinolin-2-one], the IC50 came to 11.8 nM.

Consider `Cc1nc(F)ccc1-n1c(=O)n(C)c2cnc3ccc(-c4cnc5c(ccn5C)c4)cc3c21` [Example 7.2, 1-(6-Fluoro-2-methyl-pyridin-3-yl)-3-methyl-8-(1-methyl-1H-pyrrolo[2,3-b]pyridin-5-yl)-1,3-dihydro-imidazo[4,5-c]quinolin-2-one], for which the IC50 came out at 12.1 nM. For `CCOc1ccc(-c2ccc3ncc4c(c3c2)n(-c2ccc(F)nc2C)c(=O)n4C)cn1` [Example 7.3, 8-(6-Ethoxy-pyridin-3-yl)-1-(6-fluoro-2-methyl-pyridin-3-yl)-3-methyl-1,3-dihydro-imidazo[4,5-c]quinolin-2-one], the IC50 came out at 42.2 nM. Regarding `CNc1ccc(-c2ccc3ncc4c(c3c2)n(-c2ccc(F)nc2C)c(=O)n4C)cn1` [Example 7.4, 1-(6-Fluoro-2-methyl-pyridin-3-yl)-3-methyl-8-(6-methylamino-pyridin-3-yl)-1,3-dihydro-imidazo[4,5-c]quinolin-2-one], the IC50 stood at 7.18 nM. The same measure for `CCOc1cc(-c2ccc3ncc4c(c3c2)n(-c2ccc(F)nc2C)c(=O)n4C)cnc1COC` [Example 7.5, 8-(5-Ethoxy-6-methoxymethyl-pyridin-3-yl)-1-(6-fluoro-2-methyl-pyridin-3-yl)-3-methyl-1,3-dihydro-imidazo[4,5-c]quinolin-2-one]: 31.5 nM; for `Cc1nc(F)ccc1-n1c(=O)n(C)c2cnc3ccc(-c4cncc(C(C)(C)O)c4)cc3c21` [Example 7.8, 1-(6-Fluoro-2-methyl-pyridin-3-yl)-8-[5-(1-hydroxy-1-methyl-ethyl)-pyridin-3-yl]-3-methyl-1,3-dihydro-imidazo[4,5-c]quinolin-2-one]: 14.5 nM; for `CCOc1ccc(-c2ccc3ncc4c(c3c2)n(-c2ccc(N3CCNCC3)nc2OC)c(=O)n4C)cn1` [Example 9.1, 8-(6-Ethoxy-pyridin-3-yl)-1-(2-methoxy-6-piperazin-1-yl-pyridin-3-yl)-3-methyl-1,3-dihydro-imidazo[4,5-c]quinolin-2-one]: 18.4 nM.

`COc1nc(N2CCNCC2)ccc1-n1c(=O)n(C)c2cnc3ccc(-c4cnc(N)c(C(F)(F)F)c4)cc3c21` [Example 9.2, 8-(6-Amino-5-trifluoromethyl-pyridin-3-yl)-1-(2-methoxy-6-piperazin-1-yl-pyridin-3-yl)-3-methyl-1,3-dihydro-imidazo[4,5-c]quinolin-2-one]: the IC50 was determined as 33.9 nM. On to `Cc1nc(N2CCN(C)C(=O)C2)ccc1-n1c(=O)n(C)c2cnc3ccc(-c4cnc(N)c(C(F)(F)F)c4)cc3c21` [Example 21.1, 8-(6-Amino-5-trifluoromethyl-pyridin-3-yl)-3-methyl-1-[2-methyl-6-(4-methyl-3-oxo-piperazin-1-yl)-pyridin-3-yl]-1,3-dihydro-imidazo[4,5-c]quinolin-2-one], for which the IC50 was less than 4.57 nM. Consider `CCOc1cc(-c2ccc3ncc4c(c3c2)n(-c2ccc(OCCOC)nc2C)c(=O)n4C)cnc1COC` [Example 22.1, 8-(5-Ethoxy-6-methoxymethyl-pyridin-3-yl)-1-[6-(2-methoxy-ethoxy)-2-methyl-pyridin-3-yl]-3-methyl-1,3-dihydro-imidazo[4,5-c]quinolin-2-one], for which the IC50 is 17.7 nM.

With `Cc1nc(N2CCC2)ccc1-n1c(=O)n(C)c2cnc3ccc(-c4cncc(N5CCC5)c4)cc3c21` [Example 23.1, 1-(6-Azetidin-1-yl-2-methyl-pyridin-3-yl)-8-(5-azetidin-1-yl-pyridin-3-yl)-3-methyl-1,3-dihydro-imidazo[4,5-c]quinolin-2-one], the IC50 stood at 21.1 nM. In the case of `COCc1ncc(-c2ccc3ncc4c(c3c2)n(-c2ccc(N3CCC3)nc2C)c(=O)n4C)cc1OC(C)C` [Example 23.2, 1-(6-Azetidin-1-yl-2-methyl-pyridin-3-yl)-8-(5-isopropoxy-6-methoxymethyl-pyridin-3-yl)-3-methyl-1,3-dihydro-imidazo[4,5-c]quinolin-2-one], the IC50 was found to be 24.8 nM. For the molecule `Cc1nc(N2CCC2)ccc1-n1c(=O)n(C)c2cnc3ccc(-c4cncc(C(C)(C)O)c4)cc3c21` [Example 23.3, 1-(6-Azetidin-1-yl-2-methyl-pyridin-3-yl)-8-[5-(1-hydroxy-1-methyl-ethyl)-pyridin-3-yl]-3-methyl-1,3-dihydro-imidazo[4,5-c]quinolin-2-one], the IC50 is 5.7 nM. On to `CNc1ccc(-c2ccc3ncc4c(c3c2)n(-c2ccc(N3CCC3)nc2C)c(=O)n4C)cn1` [Example 23.4, 1-(6-Azetidin-1-yl-2-methyl-pyridin-3-yl)-3-methyl-8-(6-methylamino-pyridin-3-yl)-1,3-dihydro-imidazo[4,5-c]quinolin-2-one], for which the IC50 is 5.7 nM. For the molecule `CCOc1cc(-c2ccc3ncc4c(c3c2)n(-c2ccc(N3CCC3)nc2C)c(=O)n4C)cnc1COC` [Example 23.5, 1-(6-Azetidin-1-yl-2-methyl-pyridin-3-yl)-8-(5-ethoxy-6-methoxymethyl-pyridin-3-yl)-3-methyl-1,3-dihydro-imidazo[4,5-c]quinolin-2-one], the IC50 was found to be 37.3 nM. Regarding `COCc1ncc(-c2ccc3ncc4c(c3c2)n(-c2ccc(N3CCC3)nc2C)c(=O)n4C)cc1OC` [Example 23.6, 1-(6-Azetidin-1-yl-2-methyl-pyridin-3-yl)-8-(5-methoxy-6-methoxymethyl-pyridin-3-yl)-3-methyl-1,3-dihydro-imidazo[4,5-c]quinolin-2-one], the IC50 was determined as 37.1 nM. Regarding `CCNc1cc(-c2ccc3ncc4c(c3c2)n(-c2ccc(N3CCC3)nc2C)c(=O)n4C)cnc1CO` [Example 23.8, 1-(6-Azetidin-1-yl-2-methyl-pyridin-3-yl)-8-(5-ethylamino-6-hydroxymethyl-pyridin-3-yl)-3-methyl-1,3-dihydro-imidazo[4,5-c]quinolin-2-one], the IC50 stood at 7.3 nM.

Take `Cc1nc(N2CCC2)ccc1-n1c(=O)n(C)c2cnc3ccc(-c4cncc(OC(C)C)c4)cc3c21` [Example 23.9, 1-(6-Azetidin-1-yl-2-methyl-pyridin-3-yl)-8-(5-isopropoxy-pyridin-3-yl)-3-methyl-1,3-dihydro-imidazo[4,5-c]quinolin-2-one]: the IC50 was 26.2 nM.
